Values after ≈ are worked out from the molar mass of the structure shown. Where two headings read alike, the source gives them in different places.
Tests used:
C. albicans (ATCC 10231) = assay: Disk diffusion antimicrobial test, C. albicans; type: cell-based, Candida albicans; settings: yeast, 20 mg per disc (title), concentration 20 µg (footnote); for zone of inhibition at 20 µg/disc: Candida albicans, ATCC10231, disk diffusion
Method: (§1) The newly synthesized compounds were chosen to be evaluated in vitro towards a variety of pathogenic microorganisms; Gram-positive bacteria: S. aureus (ATCC 6538) and B. subtilis (ATCC 6633); Gram-negative bacteria: P. areuginosa (ATCC 27853) and E. coli (DSMZ 1058); yeast: C. albicans (ATCC 10231) and S. cerevisiae (ATCC 9080) and fungi: A. niger (NRRL A-326) using the disk diffusion method at a single dose of 20 µl. The results are shown in Table 1 as the growth inhibition zone (mm).
(§2) The antimicrobial activity of target compounds were evaluated to be in vitro against a variety of pathogenic microorganisms, namely Staphylococcus aureus (ATCC 6538), Bacillus subtilis (ATCC 6633) (Gram-positive bacteria), Pseudomonas areuginosa (ATCC 27853), Escherichia coli (DSMZ 1058) (Gram-negative bacteria), Candida albicans (ATCC 10231), Saccharomyces cerevisiae (ATCC 9080) (Yeast) and Aspergillus niger (NRRL A-326) (Fungi) using the disk diffusion method at a single dose of 20 µg. The microorganisms were served and obtained from the Microbial Biotechnology Department, National Research Center, Giza, Egypt. Amphotericin, amoxicillin and ciprofloxacin were used as reference drugs (Oxoid™ Disks). The tested compounds 11a–c, 12a–c, 13a–i, 14a–i and 15a,b were dissolved in dimethylsulphoxide (DMSO) at a concentration of 1 mg/mL. Aliquots of 20 μl were soaked on filter paper discs (6 mm) and dried at room temperature under sterilized conditions. The paper discs were placed on inoculated agar plats and then incubated for 24 h at 37 °C for bacterial strains and after 48–72 h incubation at 30 °C for fungi. Both bacterial and yeast strains were grown on nutrient agar medium (g/l): beef extract, 3; peptone, 10 and agar, 20 at pH of 7.2. The fungal strain was grown on Czapek-Dox medium (g/l): sucrose, 30; NaNO3, 3; MgSO4.7H2O, 0.5l; KCl, 0.5; FeSO4, 0.01; K2HPO4, 1 and agar, 20 at pH of 6.0.

[1] = test system: S. cerevisiae (ATCC 9080); assay: Disk diffusion antimicrobial test, S. cerevisiae; type: cell-based; settings: Saccharomyces cerevisiae, ATCC9080, yeast, 20 mg per disc (title), concentration 20 µg (footnote)
Method: as §1, §2

A. niger (NRRL A-326) = assay: Disk diffusion antimicrobial test, A. niger; type: cell-based; settings: Aspergillus niger, fungi, 20 mg per disc (title), concentration 20 µg (footnote)
Method: as §1, §2

S. aureus (ATCC 6538) = assay: Disk diffusion antimicrobial test, S. aureus; type: cell-based, Staphylococcus aureus; settings: 20 mg per disc (title), concentration 20 µg (footnote); for zone of inhibition at 20 µg/disc: Staphylococcus aureus, ATCC6538, Gram-positive
Method: as §1, §2

B. subtilis (ATCC 6633) = assay: Disk diffusion antimicrobial test, B. subtilis; type: cell-based, Bacillus subtilis; settings: 20 mg per disc (title), concentration 20 µg (footnote); for zone of inhibition at 20 µg/disc: Bacillus subtilis, ATCC6633, Gram-positive
Method: as §1, §2

[2] = test system: P. aeruginosa (ATCC 27853); assay: Disk diffusion antimicrobial test, P. aeruginosa; type: cell-based, Pseudomonas areuginosa; settings: Pseudomonas aeruginosa, ATCC27853, Gram-negative, 20 mg per disc (title), concentration 20 µg (footnote)
Method: as §1, §2

[3] = DPPH free radical scavenging assay; type: biochemical; settings: concentration of 20µg/l, mean ± SD of three experiments
Method: Antioxidant activity of the newly synthesized 13a–i, 14a–i, 11a–c and 12a–c were assessed in terms of hydrogen-donating or radical-scavenging ability via the stable free radical 1,1-diphenyl-2-picrylhydrazyl (DPPH) using ascorbic acid as a reference at a concentration of […].
The free radical scavenging activity (RSA) was assessed spectrophotometically at 517 nm via decoloration of the solution of the DPPH (1,1-diphenyl-2-picrylhydrazyl) radical according to Brand-Williams et al. 1995 [32]. DPPH solution was prepared by dissolving of 20 mg of DPPH in one liter of dimethylsulphoxide (DMSO). A freshly prepared DPPH solution was used for the assay. Each of the tested compounds 11a–c, 12a–c, 13a–i, 14a–i and 15a,b were dissolved in DMSO (1mg/mL). A volume of […] of a DMSO stock solution of the test compounds was added to 2 mL of freshly prepared DPPH in DMSO solution. The mixtures were shaken in a vortex (2500 rpm) for 1 min and then left to stand for 15, 30, 45 and 60 min in the dark room. The absorbance was measured at 517 nm against blank using UV visible spectrophotometer 2401 PC (Shimadzu, Kyoto, Japan). Lower absorbance of the reaction mixture indicated higher free radical scavenging activity was analyzed from the graph plots of the inhibition percentage against the compound concentration. The experiment was carried out in triplicate and averaged. The scavenging activity was calculated according to the following formula:Scavenging ability (%) = (A517 of control - A517of sample / A 517 of control) ×100(1)

[4] = test system: HCT-116 (human colon cancer); assay: MTT cytotoxicity assay, HCT-116; type: cell-based; settings: Homo sapiens; for inhibition at 100 µg/mL: HCT-116, 100 µg/ml, 48 h, read-out: Growth Inhibition (%) HCT-116
[5] = test system: MCF-7 (human breast cancer); assay: MTT cytotoxicity assay, MCF-7; type: cell-based; settings: for inhibition at 100 µg/mL: MCF7, 100 µg/ml, 48 h, read-out: Growth Inhibition (%) MCF-7
Method: (§5) MCF-7 (human breast cancer), HCT-116 (human colon cancer) and HepG2 (human liver cancer) cell lines were obtained from Karolinska Institute, Stockholm, Sweden. All cells were maintained in RPMI 1640 medium. The media were supplemented with 10% heat-inactivated fetal bovine serum plus 1% antibiotic-antimycoticmixture (10,000 U/mL of potassium penicillin, 10,000 μg/mL of streptomycin sulfate, 25 μg/mL of amphotericin B and 1% of L glutamine (Biowest, USA)). BJ-1 of a human skin fibroblast derived from normal foreskin was obtained from ATCC® CRL-2522™ as a frozen ampoule with about 1 × 10^6 cells per 1 ml volume. BJ-1 was maintained in MEM with 2 mM of L-glutamine and Earle’s salts medium.
(§6) Cell viability was studied using the MTT 3-(4,5-dimethylthiazol-2-yl)-2,5-diphenyl-tetrazolium bromide (Bio Basic Canada Inc. Toronto, Canada) assay [33]. The steps were executed in a sterile laminar air flow cabinet biosafety class II level (Baker, SG403INT; Sanford, ME, USA). All incubations were carried out at 37 °C in a 5% CO2 incubator under a humidified atmosphere of 95% (Sheldon, TC2323; Cornelius, OR, USA). Cells were seeded into 96-well microtiter plastic plates at a concentration of (10^4 cells/well) and allowed to adhere for 24 h. The medium was aspirated and then added to the cells with the test compounds 11a–c, 12a–c, 13a–i, 14a–i and 15a,b at a single dose of 100 μg/mL in DMSO. After incubation of the medium for 48 h, 40 μL of MTT salt (2.5 μg/mL) was added to each well and then incubated for an additional 4 h. To stop the reaction and dissolve any formed formazan crystals, 200 μL of 10% sodium dodecyl sulfate (SDS) were added to each well and incubated overnight at 37 °C. The amount of formazan product was measured at 595 nm with a reference wavelength of 690 nm as a background using a microplate reader (Bio-Rad Laboratories, model 3350, California, USA). For the untreated cells (negative control), the medium was added instead of the tested compounds. […] Dimethylsulfoxide (DMSO) was the vehicle used for dissolution of the testing compound, and its final concentration on the cells was less than 0.2%. At the same dilution, the solvent concentration was the same for all drugs and between the control and drug treatments.

[6] = test system: normal skin fibroblast cells (BJ-1); assay: MTT cytotoxicity assay, normal skin fibroblast BJ-1; type: cell-based; settings: Homo sapiens, 48 h, read-out: Growth Inhibition (%) BJ-1
[7] = test system: HepG-2 (human liver cancer); assay: MTT cytotoxicity assay, HepG-2; type: cell-based
Method: as §5, §6

caspase-3 [8] = assay: Caspase-3 colorimetric assay in MCF-7 cells; type: cell-based, human
Text: (§3) The promising antiproliferative results reported for compounds 11a, 11b, 12a, 12b and 13c against cell lines under study have prompted us to investigate the mechanism of cell death induced by these compounds. Apoptosis induction was examined in both MCF-7 and HCT-116 cancer cells by assaying the level of its key protein markers, namely: proapoptotic (p53, Bcl 2-associated X, Bax and caspases3) and antiapoptotic (B-cell lymphoma-2, Bcl-2). MCF-7 and HCT-116 cells undergoing apoptosis was detected by use of the ELISA technique. Protein marker levels were quantified according to Bradford assay.
(§4) Briefly, cells ([…] and HCT) were seeded at a concentration of 1.2–1.8 × 10^3 cells/well in 6-well plates. After 48-h treatment, the collected cells were lysed and centrifuged at 10,000 rpm for 20 min at 4 °C. The protein concentration was measured in the supernatant by Bradford protein assay. Volume containing […] of total protein was incubated with […] of caspase substrate in […] of the reaction buffer at 37 °C for 1 h in the dark. Caspase-3 activity was determined by a microplate reader at 405 nm using a caspase-3 colorimetric assay kit (Abcam) according to the manufacturer’s instructions. In vitro protein level quantitative measurement of apoptotic marker p53, Bcl-2-associated X (Bax) and antiapoptotic marker B-cell lymphoma-2 (Bcl-2) in cell lysate were assessed by Enzyme-Linked Immunosorbent Assay Simple Step ELISA® (ab199080, ab119506 and ab171571; Abcam) according to the manufacturer’s instructions.

Bcl-2 [9] = assay: Bcl-2 ELISA in MCF-7 cells; type: cell-based, human; settings: MCF-7 cells treated at IC50 concentration; control 25.13 ± 3.45; mean ± SD
Text: as §3, §4

p53 [10] = assay: p53 ELISA in MCF-7 cells; type: cell-based, human; settings: MCF-7 cells treated at IC50 concentration; control 4.18 ± 0.58; mean ± SD
Text: as §3, §4

Bax [11] = assay: Bax ELISA in MCF-7 cells; type: cell-based, human; settings: MCF-7 cells treated at IC50 concentration; control 39.56 ± 4.56; mean ± SD
Text: as §3, §4

caspase-3 [12] = assay: Caspase-3 colorimetric assay in HCT-116 cells; type: cell-based, human; settings: HCT-116 cells treated at IC50 concentration; control 13.60 ± 2.45; mean ± SD
Text: as §3, §4

Bcl-2 [13] = assay: Bcl-2 ELISA in HCT-116 cells; type: cell-based, human; settings: HCT-116 cells treated at IC50 concentration; control 23.56 ± 3.56; mean ± SD
Text: as §3, §4

p53 [14] = assay: p53 ELISA in HCT-116 cells; type: cell-based, human; settings: HCT-116 cells treated at IC50 concentration; control 1.68 ± 0.06; mean ± SD
Text: as §3, §4

Bax [15] = assay: Bax ELISA in HCT-116 cells; type: cell-based, human; settings: HCT-116 cells treated at IC50 concentration; control 118.54 ± 0.83; mean ± SD
Text: as §3, §4

[16] = 15 min, read-out: Scavenging Activity (%) on DPPH radicals at 15 min
[17] = 30 min, read-out: Scavenging Activity (%) on DPPH radicals at 30 min
[18] = 45 min, read-out: Scavenging Activity (%) on DPPH radicals at 45 min
[19] = 60 min, read-out: Scavenging Activity (%) on DPPH radicals at 60 min

Compound | zone of inhibition at 20 µg/disc (C. albicans (ATCC 10231)) [mm] | zone of inhibition at 20 µg/disc [1] [mm] | zone of inhibition at 20 µg/disc (A. niger (NRRL A-326)) [mm] | zone of inhibition at 20 µg/disc (S. aureus (ATCC 6538)) [mm] | zone of inhibition at 20 µg/disc (B. subtilis (ATCC 6633)) [mm] | zone of inhibition at 20 µg/disc [2] [mm] | inhibition [3, 16] [%] | inhibition [3, 17] [%] | inhibition [3, 18] [%] | inhibition [3, 19] [%] | inhibition at 100 µg/mL [4] [%] | inhibition at 100 µg/mL [5] [%] | inhibition at 100 µg/mL [6] [%] | further results
C[C@@H]1[C@H](O)[C@@H](C)/C=C/C=C/C=C/C=C/C=C/C=C/C=C/[C@H](O[C@@H]2O[C@H](C)[C@@H](O)[C@H](N)[C@@H]2O)C[C@@H]2O[C@](O)(C[C@@H](O)C[C@@H](O)[C@H](O)CC[C@@H](O)C[C@@H](O)CC(=O)O[C@H]1C)C[C@H](O)[C@H]2C(=O)O [Amphotericin B, amphotericin B, reference compound] | 23.5 | 23.5 | 26.7 | – | – | – | – | – | – | – | – | – | – | –
COc1c(-c2cnc3ccccc3c2C(=O)O)c(O)cc2occc12 [Compound 15a, 3-(6-Hydroxy-4-methoxybenzofuran-5-yl)quinoline-4-carboxylic acid] | 12 | – | 10 | 8 | 16 | 24 | 9.36 ± 1.25 | 14.2 ± 1.61 | 20.4 ± 1.92 | 24.8 ± 2.05 | – | – | – | melting point: 217 to 219 °C
CCOc1c(C2=NNC3(C2)C(=O)Nc2ccccc23)c(OC)c2ccoc2c1OC (stereo not shown) [Compound 12c, 5’-(6-Ethoxy-4,7-dimethoxy-benzofuran-5-yl)-2’,4’-dihydrospiro(indoline-3,3’-pyrazol)-2-one] | 10 | 10 | – | 10 | 18 | 20 | 9.76 ± 1.76 | 10.2 ± 1.26 | 11.4 ± 1.53 | 14 ± 1.55 | 12.4 | 6.3 | 62.3 | –
3-(6-Hydroxy-4,6-dimethoxybenzofuran-5-yl)quinoline-4-carboxylic acid [Compound 15b] | – | – | – | – | – | – | 23.6 ± 1.36 | 32.7 ± 1.13 | 39.2 ± 1.29 | 47.5 | – | – | – | Inhibition Zone (mm), S. aureus (ATCC 6538) (S. aureus (ATCC 6538); Gram-positive): 8 mm; Inhibition Zone (mm), B. subtilis (ATCC 6633) (B. subtilis (ATCC 6633); Gram-positive): 10 mm; Inhibition Zone (mm), C. albicans (ATCC 10231) (C. albicans (ATCC 10231); disk diffusion): 8 mm
O=C1Nc2ccccc2C12CC(c1cn(Cc3ccccc3)c3ccccc13)=NN2 (stereo not shown) [Compound 13c, 5’-(N-Benzyl-1H-indol-3-yl)-2’,4’-dihydrospiro(indoline-3,3’-pyrazol)-2-one] | – | – | – | – | – | – | 14 ± 1.36 | 21 ± 1.26 | 24 ± 1.51 | 35.1 ± 1.61 | 97.9 | 97.8 | 5.1 | IC50 ([4]; HCT-116, 48 h, 48 h post-treatment): 14.7 µg/mL (≈ 37.5 µM); inhibition at 100 µg/mL ([7]; HepG2, 100 µg/ml, 48 h, read-out: Growth Inhibition (%) HepG-2): 90.9%; IC50 ([7]; HepG2, 48 h post-treatment): 27 µg/mL (≈ 68.8 µM); IC50 ([5]; MCF7, 48 h post-treatment): 24.1 µg/mL (≈ 61.4 µM); Caspase-3 Activity % (caspase-3 [8]; MCF-7 cells treated at IC50 concentration, control 10.2 ± 2.84, mean ± SD): 39.07 ± 4.97%; Elevation of active caspase-3 protein levels compared to the control (caspase-3 [8]; MCF-7 cells, IC50 concentration): ~3.8 folds; Bcl-2 (ng/50 mg Protein) (Bcl-2 [9]): 44.5 ± 4.56 ng/50 mg Protein; p53 (Pg/50 mg Protein) (p53 [10]): 7.34 ± 1.5 Pg/50 mg Protein; Bax (pg/50 mg Protein) (Bax [11]): 88.34 ± 3.79 pg/50 mg Protein; Caspase-3 Activity % (caspase-3 [12]): 47.32 ± 6.32%; Bcl-2 (ng/50 mg Protein) (Bcl-2 [13]): 57.45 ± 6.45 ng/50 mg Protein; p53 (pg/50 mg Protein) (p53 [14]): 2.34 ± 0.95 pg/50 mg Protein; Bax (pg/50 mg Protein) (Bax [15]): 123.45 ±7.45 pg/50 mg Protein
